{"source": "patent US20220193209A1", "about": "“COMPOSITIONS AND METHODS FOR REACTIVATING LATENT IMMUNODEFICIENCY VIRUS AND/OR TREATING IMMUNODEFICIENCY VIRUS INFECTION” (The J. David Gladstone institutes, a testamentary trust …, priority 2019, published 2022)", "system": "HIV LTR", "assay": "Chromatin immunoprecipitation (ChIP) at the HIV LTR in J-Lat cells", "assay_type": "cell-based, HIV-1", "procedure": "J-Lat A2 and A72 cells were treated with TNFα (10 ng/ml) for 18 h. Cells were fixed with 1% formaldehyde (v/v) in fixation buffer (1 mM EDTA, 0.5 mM EGTA, 50 mM Hepes, pH 8.0, 100 mM NaCl), and fixation was stopped after 10 min by addition of glycine to 125 mM. The cell membrane was lysed for 15 min on ice (5 mM Pipes, pH 8.0, 85 mM KCl, 0.5% NP40, protease inhibitors). After washing with nuclear swell buffer (25 mM HEPES, pH 7.5, 4 mM KCl, 1 Mm DTT, 0.5% NP-40, 0.5 mM PMSF) and micrococcal nuclease (MNase) digestion buffer (20 mM Tris pH 7.5, 2.5 mM CaCl2), 5 mM NaCl, 1 mM DTT, 0.5% NP-40), the pellet was resuspended in MNase buffer (15 mM Tris-HCl, pH 7.5, 5 mM MgCl2, 1 mM CaCl2), and 25 mM NaCl). Subsequently, samples were incubated with MNase (New England Biolabs) for 10 min at RT. The reaction was quenched with 0.5 M EDTA and incubated on ice for 5 min. Cells were lysed (1% SDS, 10 mM EDTA, 50 mM Tris-HCl, pH 8.1, protease inhibitors), and chromatin DNA was sheared to 200-1000-bp average size through sonication (Ultrasonic Processor CP-130, Cole Parmer). Cellular debris was pelleted, and the supernatant was recovered. Protein A/G Sepharose beads were blocked with single-stranded salmon sperm DNA and BSA, washed and resuspended in immunoprecipitation buffer. Blocked protein A/G Sepharose beads were added to the digested chromatin fractions and rotated at 4° C. for 2 h to preclear chromatin. Lysates were incubated overnight at 4° C. with 5 μg of FOXO1, RelA, histone H4, H4K20me1, H4K20me2, H4K20me3 antibodies, or IgG control. After incubation with protein A/G agarose beads for 2 h and washing three times with low salt buffer (0.1% SDS, 1% Triton X-100, 2 mM EDTA, 20 mM Tris-HCl, pH 8.1, 150 mM NaCl), one time with high salt buffer (0.1% SDS, 1% Triton X-100, 2 mM EDTA, 20 mM Tris-HCl, pH 8.1, 500 mM NaCl) and twice with TE-buffer (1 mM EDTA, 10 mM Tris-HCl, pH 8.1), chromatin was eluted and recovered with Agencourt AMPure XP beads (Beckman Coulter). Bound chromatin and input DNA were treated with RNase H (New England Biolabs) and Proteinase K (Sigma-Aldrich) at 37° C. for 30 min. Immunoprecipitated chromatin was quantified by real-time PCR using the Maxima SYBR Green qPCR Master Mix (Thermo Scientific) and the ABI 7700 Sequence Detection System (Applied Biosystems). The SDS 2.4 software (Applied Biosystems) was used for analysis. The specificity of each PCR reaction was confirmed by melting curve analysis using the Dissociation Curve software (Applied Biosystems). All chromatin immunoprecipitations and qPCRs were repeated at least three times, and representative results were shown.\nBecause ATF4 can be recruited to the HIV LTR (Jiang, G. et al. Downloaded from. MBio 8, 1518-1534 (2018)) and the related human T-cell leukemia virus type 1 (HTLV-1) Reddy, T. et al. Oncogene 14, 2785-2792 (1997)), chromatin immunoprecipitation (ChIP) experiments were performed to test whether ATF4 binds the HIV LTR in response to FOXO1 inhibition. While low levels of ATF4 bound HIV LTR chromatin in untreated J-Lat cells, its recruitment was 3-fold enriched after AS1842856 treatment (FIG. 9, Panel A). […] The nuclear factor of activated T cells (NFAT) can occupy the NF-κB binding sites in the HIV LTR, and is activated through calcium mobilization after T cell activation rather than protein kinase C activation as for NF-κB. […]"}
{"smiles": "CCn1cc(C(=O)O)c(=O)c2c(N)c(F)c(NC3CCCCC3)cc21", "note": "[AS1842856, 5-amino-7-(cyclohexylamino)-1-ethyl-6-fluoro-4-oxo-1,4-dihydro-quinoline-3-carboxylic acid]", "values": [{"measurement": "NFAT at the HIV LTR", "result": "markedly enriched"}, {"measurement": "RNA polymerase II recruitment to the HIV promoter", "result": "marked increase"}, {"measurement": "RelA recruitment to the HIV LTR", "result": "not recruited"}, {"measurement": "ATF4 recruitment to HIV LTR chromatin", "setting": "1000 nM vs untreated", "result": 3, "unit": "fold"}]}
